“And” between values parts separate entries of the source, which are not always exact repeats. Equal entries are not always repeated. Where two headings read alike, the source gives them in different places.
What was measured:
MDBK line = assay: MTT Cell Proliferation Assay, MDBK cells; type: cell-based, bovine
How it was run: (§1)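 Each concentration ran in quadruplicate across duplicate plates, with compounds serially diluted in DMSO and delivered at 0.5% DMSO in 0.5% FBS medium for 3 days.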

EGFR = molecular target: T1, EGFR (Homo sapiens, UniProt P00533); assay: EGFR in-cell Western (ICW) screening protocol (EGFR inhibition assay); type: cell-based; conditions: for ICW assay: Table 10, % Inhibition of EGF dependent EGFR phosphorylation in A431 cells, compound 125 μM in assay
T1 construct: host or cells: A431
How it was run: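 In-cell Western read-out: fixed A431 cells were co-stained for total EGFR and phospho-EGFR (Tyr1173; some runs Tyr1045). Before fixation, cells were serum-starved for 2 h, exposed to compound for 4 h, then given EGF for 10 min, usually at 10 ng/ml final (6.6 or 12.5 ng/ml in some runs).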

[1] = test system: epithelial carcinoma A431 cell line; assay: MTT Cell Proliferation Assay, A431 cells; type: cell-based
How it was run: as §1

[2] = Bos taurus, MDBK, second value of 'a/b (c)', taken as MDBK cells, read-out: MTT Screen, second value of cell
[3] = Homo sapiens, A-431, first value of 'a/b (c)', taken as A431 cells, read-out: MTT Screen, first value of cell
[4] = second value of 'a/b (c)', taken as MDBK cells, read-out: MTT Screen, second value of cell
[5] = first value of 'a/b (c)', taken as A431 cells, read-out: MTT Screen, first value of cell
[6] = first value of 'a/b (c)', taken as A431 cells
[7] = Bos taurus, MDBK, 72 h, Table 10, second of x/y(ratio): MDBK, three day treatment, unit not printed (doses in μM), read-out: MTT assay (second value)
[8] = Homo sapiens, A-431, 72 h, Table 10, first of x/y(ratio): A431, three day treatment, unit not printed (doses in μM), read-out: MTT assay (first value)

T1 sequence (P00533 25-1210): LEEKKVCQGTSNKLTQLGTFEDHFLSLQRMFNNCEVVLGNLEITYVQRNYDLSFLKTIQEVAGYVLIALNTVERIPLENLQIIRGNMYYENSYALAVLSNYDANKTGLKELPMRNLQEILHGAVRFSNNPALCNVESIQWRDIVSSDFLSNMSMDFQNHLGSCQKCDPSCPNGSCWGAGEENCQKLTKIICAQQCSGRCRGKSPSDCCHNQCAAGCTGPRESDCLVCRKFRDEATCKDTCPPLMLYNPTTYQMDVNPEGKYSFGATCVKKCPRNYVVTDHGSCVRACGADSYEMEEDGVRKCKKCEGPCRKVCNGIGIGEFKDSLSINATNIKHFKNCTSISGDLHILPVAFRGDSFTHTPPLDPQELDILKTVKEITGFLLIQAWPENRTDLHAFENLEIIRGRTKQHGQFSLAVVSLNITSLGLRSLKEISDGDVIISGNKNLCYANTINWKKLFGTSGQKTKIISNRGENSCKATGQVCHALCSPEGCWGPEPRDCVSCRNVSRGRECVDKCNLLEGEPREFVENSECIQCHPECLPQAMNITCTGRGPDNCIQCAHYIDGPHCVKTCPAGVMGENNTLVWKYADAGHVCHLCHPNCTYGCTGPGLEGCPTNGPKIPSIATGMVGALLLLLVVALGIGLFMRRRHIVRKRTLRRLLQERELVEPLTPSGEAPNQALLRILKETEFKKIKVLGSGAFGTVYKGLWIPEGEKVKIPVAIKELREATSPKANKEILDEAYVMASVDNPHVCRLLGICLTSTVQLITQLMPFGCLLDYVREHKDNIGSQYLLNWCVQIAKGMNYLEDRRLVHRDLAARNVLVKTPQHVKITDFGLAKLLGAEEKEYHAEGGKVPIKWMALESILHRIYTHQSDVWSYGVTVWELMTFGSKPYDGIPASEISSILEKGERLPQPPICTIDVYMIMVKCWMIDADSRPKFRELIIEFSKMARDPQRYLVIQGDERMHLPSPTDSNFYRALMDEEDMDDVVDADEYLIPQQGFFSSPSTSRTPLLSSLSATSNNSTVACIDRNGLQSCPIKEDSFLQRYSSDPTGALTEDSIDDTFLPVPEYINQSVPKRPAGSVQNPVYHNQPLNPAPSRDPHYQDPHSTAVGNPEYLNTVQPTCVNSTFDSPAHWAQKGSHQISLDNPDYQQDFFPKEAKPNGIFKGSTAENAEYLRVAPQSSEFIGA

Compound	IC50 (MDBK line; [2])	ICW Screen (ICW Inhibition) (EGFR)	IC50 [1, 3]	also measured
CC(C)CC(=O)NC(=S)Nc1ccc(S(=O)(=O)NC2CCCCC2)cc1 [AD4-12041]	14.3 µM	43.515	6.61 µM	
O=C(NC(=S)Nc1ccc(S(=O)(=O)Nc2ccccc2)cc1)C1CCC1 [AD4-12044]	33.1 µM	34.334	63.2 µM	
CCN(CC)S(=O)(=O)c1ccc(NC(=S)NC(=O)CC(C)C)cc1 [AD4-12049]	12 µM	36.966	32.3 µM	
CN1CCN(S(=O)(=O)c2ccc(NC(=S)NC(=O)/C=C/c3ccccc3Cl)cc2)CC1 [AD4-12059]	37.7 µM	28.33	32.2 µM	
CN1CCN(S(=O)(=O)c2ccc(NC(=S)NC(=O)/C=C/c3cccs3)cc2)CC1 [AD4-12060]	40.5 µM	34.272	48.5 µM	
Cc1ccc(NS(=O)(=O)c2ccc(NC(=S)NC(=O)C(C)C)cc2)c(C)c1 [AD4-12062]	18.8 µM	34.268	64.5 µM	
O=C(NC(=S)Nc1ccc(S(=O)(=O)N2CCCCC2)cc1)C1CCC1 [AD4-12064]		34.778		IC50 (MDBK line; [4]): 42.7 µM; IC50 [1, 5]: 47.8 µM
Cc1ccccc1OCC(=O)NC(=S)Nc1ccc(S(=O)(=O)NC2CCCCC2)cc1 [AD4-12073]	32.3 µM	29.313	19.5 µM	IC50 (MDBK line; [4]): 17 µM; IC50 [1, 5]: 11.6 µM
O=C(Cc1ccccc1)NC(=S)Nc1ccc(S(=O)(=O)Nc2ccccc2)cc1 [AD4-12074]		29.545	16.2 µM	IC50 (MDBK line; [4]): 32.3 µM
O=C(COc1ccc(Cl)cc1Cl)NC(=S)Nc1ccc(S(=O)(=O)NC2CCCCC2)cc1 [AD4-12075]	40.1 µM	25.956	19.2 µM	
Cc1ccc(NS(=O)(=O)c2ccc(NC(=S)NC(=O)C3CC3)cc2)c(C)c1 [AD4-12097]	9.85 µM	48.543	15.1 µM	
O=C(NC(=S)Nc1ccc(S(=O)(=O)Nc2ccccc2)cc1)C1CC1 [AD4-12098]	16.4 µM	25.946	23.4 µM	
O=C(NC(=S)Nc1ccc(S(=O)(=O)N2CCCCCC2)cc1)C1CCC1 [AD4-12104]	37.6 µM	41.204	39 µM	
CN1CCN(S(=O)(=O)c2ccc(NC(=S)NC(=O)/C=C/c3ccc(F)cc3)cc2)CC1 [AD4-12107]		41.933	14.1 µM	MTT Screen, second value of cell (MDBK line; second value of 'a/b (c)', taken as MDBK cells): non- conver- gent
COc1ccc(NS(=O)(=O)c2ccc(NC(=S)NC(=O)C3CCCC3)cc2)cc1 [AD4-12119]	14.6 µM	55.94	18.6 µM	
COc1cc(NS(=O)(=O)c2ccc(NC(=S)NC(=O)/C=C/c3ccccc3)cc2)nc(OC)n1 [AD4-12122]	40.3 µM	35.068		MTT Screen, first value of cell [1, 6]: non- conver- gent
CN(Cc1ccccc1)S(=O)(=O)c1ccc(NC(=S)NC(=O)/C=C/c2ccccc2)cc1 [AD4-12126]	41.9 µM	37.795	14.9 µM	
Cc1cc(C)cc(NS(=O)(=O)c2ccc(NC(=S)NC(=O)CCc3ccccc3)cc2)c1 [AD4-12139]	5.3 µM	41.23	18.6 µM	
CN1CCN(S(=O)(=O)c2ccc(NC(=S)NC(=O)/C=C/c3ccccc3)cc2)CC1 [AD4-12145]	41.8 µM	30.469	40.5 µM	

Compound	IC50 (MDBK line; [2])	ICW Screen (ICW Inhibition) (EGFR)	IC50 [1, 3]	also measured
CC1CCC(S(=O)(=O)c2ccc(NC(=S)NC(=O)C3CC3)cc2)CC1 (stereo not shown) [AD4-12146]	25.8 µM	40.916	26.6 µM	
COc1ccccc1/C=C/C(=O)NC(=S)Nc1ccc(S(=O)(=O)Nc2nc(C)cc(C)n2)cc1 [AD4-12148]	39.2 µM	51.845	42.8 µM	
COc1ccc(NS(=O)(=O)c2ccc(NC(=S)NC(=O)CCC(=O)OCCc3ccccc3)cc2)cc1 [AD4-12149]	36.2 µM	33.331	21.9 µM	
Cc1ccc(NS(=O)(=O)c2ccc(NC(=S)NC(=O)COc3ccc(Cl)cc3C)cc2)c(C)c1 [AD4-12152]	16.2 µM	50.528	21 µM	
CC1CCN(S(=O)(=O)c2ccc(NC(=S)NC(=O)CCC(=O)OCCc3ccccc3)cc2)CC1 [AD4-12153]	21.8 µM	31.36	15.6 µM	
Cc1cc(C)nc(NS(=O)(=O)c2ccc(NC(=S)NC(=O)COc3ccc(Br)cc3Cl)cc2)n1 [AD4-12158]	4.58 µM	36.727	5.01 µM	
COc1ccc(OCC(=O)NC(=S)Nc2ccc(S(=O)(=O)Nc3cc(C)cc(C)c3)cc2)cc1 [AD4-12165]	12 µM	36.632		IC50 [1, 5]: 63.6 µM
CN(c1ccccc1)S(=O)(=O)c1ccc(NC(=S)NC(=O)/C=C/c2ccccc2)cc1 [AD4-12168]	19.7 µM	28.819	60.5 µM	MTT Screen, first value of cell [1, 6]: non- conver- gent
O=C(NC(=S)Nc1ccc(S(=O)(=O)NC2CCCCC2)cc1)C1CC1 [AD4-12171]	37.1 µM	37.375	38.9 µM	
Cc1cc(NS(=O)(=O)c2ccc(NC(=S)NC(=O)/C=C/c3ccccc3)cc2)no1 [AD4-12173]		35.393	37.3 µM	IC50 (MDBK line; [4]): 106 µM and 54 µM; IC50 [1, 5]: 55.8 µM
Cc1ccc(NS(=O)(=O)c2ccc(NC(=S)NC(=O)C3CCC3)cc2)cc1C [AD4-12175]		42.36		IC50 (MDBK line; [4]): 9.56 µM; IC50 [1, 5]: 40 µM
CCCC(=O)NC(=S)Nc1ccc(S(=O)(=O)Nc2ccc(OCC)cc2)cc1 [AD4-12183]	17.2 µM	37.695	25.6 µM	
COc1ccc(NS(=O)(=O)c2ccc(NC(=S)NC(=O)COc3ccc(Cl)cc3C)cc2)cc1 [AD4-12196]	36.8 µM	34.379	18 µM	
COc1ccc(NC(=S)Nc2ccc(S(=O)(=O)Nc3ccc(Cl)c(Cl)c3)cc2)cc1OC [AD4-12246]				IC50 (MDBK line; [7]): 8.01 µM; ICW assay (EGFR): 38.3844; IC50 [1, 8]: 8.36 µM
Cc1cc(C)c(NS(=O)(=O)c2ccc(NC(=S)Nc3ccc(S(N)(=O)=O)cc3)cc2)c(C)c1 [AD4-12250]				IC50 (MDBK line; [7]): 11.6 µM; ICW assay (EGFR): 29.3683; IC50 [1, 8]: 12.7 µM
COc1cc(NS(=O)(=O)c2ccc(NC(=S)NC(=O)/C=C/c3ccccc3)cc2)nc(OC)n1 [AD4-12262]		40.146		IC50 (MDBK line; [4]): 43.4 µM; IC50 [1, 5]: 42.9 µM
COc1ccccc1/C=C/C(=O)NC(=S)Nc1ccc(S(=O)(=O)N2CCN(C)CC2)cc1 [AD4-12265]	35.1 µM	31.19	38.1 µM	
COc1ccc(CC(=O)NC(=S)Nc2ccc(S(=O)(=O)Nc3nc(C)cc(C)n3)cc2)cc1 [AD4-12266]	45.9 µM	29.289	49.6 µM	
Cc1cc(NS(=O)(=O)c2ccc(NC(=S)NC(=O)/C=C/c3ccccc3)cc2)no1 [AD4-12273]		33.104		IC50 (MDBK line; [4]): 42.9 µM; IC50 [1, 5]: 31.7 µM
